{"source": "patent US12214059B2", "about": "“Cleavable radioligands for targeting cell surface receptors and uses thereof” (Full-Life Te[…] Limited, priority 2021, dated 2025)", "key": {"PSMA": {"molecular_target": "T1, PSMA (Homo sapiens, UniProt Q04609)", "T1 construct": "host or cells: LNCaP cells", "T1 sequence (Q04609 whole entry)": "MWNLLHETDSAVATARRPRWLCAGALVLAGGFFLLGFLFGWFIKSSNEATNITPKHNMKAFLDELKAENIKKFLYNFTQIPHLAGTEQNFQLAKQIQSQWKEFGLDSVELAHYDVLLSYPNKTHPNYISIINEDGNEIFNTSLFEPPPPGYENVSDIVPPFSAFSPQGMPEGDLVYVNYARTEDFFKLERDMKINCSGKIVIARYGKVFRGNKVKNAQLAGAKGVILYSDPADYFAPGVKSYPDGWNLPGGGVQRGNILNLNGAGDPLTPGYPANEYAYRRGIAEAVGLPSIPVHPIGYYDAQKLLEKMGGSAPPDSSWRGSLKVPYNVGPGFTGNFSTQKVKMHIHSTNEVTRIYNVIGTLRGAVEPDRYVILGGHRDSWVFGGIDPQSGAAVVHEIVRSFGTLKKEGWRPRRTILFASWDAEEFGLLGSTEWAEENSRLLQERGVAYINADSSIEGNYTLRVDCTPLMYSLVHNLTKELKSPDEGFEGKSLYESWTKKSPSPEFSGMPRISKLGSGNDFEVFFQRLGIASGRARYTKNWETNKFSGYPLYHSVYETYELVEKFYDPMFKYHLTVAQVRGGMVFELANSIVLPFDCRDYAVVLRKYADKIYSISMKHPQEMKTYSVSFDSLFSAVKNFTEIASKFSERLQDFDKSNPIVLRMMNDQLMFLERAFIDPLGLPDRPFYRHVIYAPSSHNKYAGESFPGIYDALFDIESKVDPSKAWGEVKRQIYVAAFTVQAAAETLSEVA", "experiment": "Cell-based radioligand competitive binding assay (^125I-C-8, LNCaP cells)", "details": "for Relative Binding Affinity: C-1 = 1.00", "protocol": "The culture medium was replaced with fresh medium every 2-3 days. Experiments were performed with cells at 70-80% confluence.\nThe final volume in each well was maintained at 200 μL and insufficient volume was adjusted by the binding buffer."}, "[1]": {"experiment": "Ex-vivo mouse plasma stability study of ^177Lu-labeled compounds", "type": "in vitro ADME", "details": "37° C.", "protocol": "Plasma Stability Study (Mouse and Human)\nMouse blood was collected via cardiac puncture of the left ventricle. Blood was placed into heparin-coated microfuge tubes and then centrifuged at 3500 rpm for 10 min to separate plasma for stability studies. Human plasma was purchased directly.\nAt each time point (0, 1, 2, 4, 24, 48 72 h), an aliquot of 25 μL sample was taken and mixed with 100 μL methanol containing 1% formic acid, vertex for 30-60 sec, then centrifuged at 20000 rpm for 10 min. 100 μL supernatant was collected and diluted with 40 μL H2O. 100 μL of the resulting mixture was injected to radio-HPLC for stability assessment, as shown examples FIG. 2 and FIG. 3. The best-fit T½ value of test compounds were calculated by fitting the data with linear or non-linear regression using GraphPad Prism 8.0.1."}, "[2]": {"system": "PC-3 PIP tumor-bearing mice", "experiment": "Biodistribution study in SCID mice bearing PC3-PIP tumor", "type": "in vivo, mouse", "details": "PC3 PIP tumor-bearing mice", "protocol": "Biodistribution Study in SCID Mice Bearing PC3-PIP Tumor\nSevere combined immunodeficient (ICR-SCID) mice from the Institute of Cancer Research (Taconic Farms, Germantown, NY) were utilized for these studies. […] These mice received bilateral subcutaneous rear flank injections of approximately 10×10^6 PC-3 PIP cells (prostate cancer cell PC-3 stably expressing human PSMA) suspended in 100 μL of 0.9% NaCl. […] The tissues and organs were weighed, counted in a PerkinElmer Wizard 3 automatic γ counter, and the percent injected dose (% ID) and % ID/g of each organ or tissue were calculated, as shown in Tables 5-24 and FIG. 1 and FIG. 2."}, "LNCap tumor-bearing mice": {"system": "LNCap tumor-bearing mice", "experiment": "Biodistribution study in CB-17 SCID mice bearing LNCap tumor", "type": "in vivo, mouse", "details": "LNCap tumor-bearing mice", "protocol": "Biodistribution Study in CB-17 SCID Mice Bearing LNCap Tumor\nAll animal care and experimental procedure were performed by following the animal protocols approved by the ethics committee of China Institute of Radiation Protection. The CB-17 SCID mice (Charles River, Beijing) were utilized for these studies. […] These mice received subcutaneous rear flank injections of approximately 4×10^6 LNCap cells suspended in 200 μL of phosphate-buffered saline (PBS) and Matrigel (Corning) (1/1)."}}}
{"smiles": "O=C(O)CC[C@H](NC(=O)N[C@@H](CCCCNC(=O)[C@H](Cc1ccc2ccccc2c1)NC(=O)C1CCC(CNC(=O)CN2CCN(CC(=O)O)CCN(CC(=O)O)CCN(CC(=O)O)CC2)CC1)C(=O)O)C(=O)O", "note": "(stereo partly drawn) [Example C-1, (((S)-1-carboxy-5-((S)-3-(naphthalen-2-yl)-2-((1r,4S)-4-((2-(4,7,10-tris(carboxymethyl)-1,4,7,10-tetraazacyclododecan-1-yl)acetamido)methyl)cyclohexane-1-carboxamido)propanamido)pentyl)carbamoyl)-L-glutamic acid tetra(trifluoroacetic acid), reference compound]", "values": [{"measurement": "Relative Binding Affinity", "setting": "PSMA; based on the mean value of the IC50 number", "result": 1.00}, {"measurement": "LogIC50 Mean", "setting": "PSMA; log10 of IC50 (negative values), nonlin fit, LNCaP cells, ^125I-C-8 radioligand", "result": "−8.544"}, {"measurement": "IC50", "setting": "PSMA; nonlin fit, LNCaP cells, ^125I-C-8 radioligand, scientific notation, unit inferred", "result": 2.86, "unit": "nM"}, {"measurement": "Relative Binding Affinity", "setting": "PSMA; relative", "result": 1.00}, {"measurement": "% Remaining 0 min", "setting": "[1]; 0 min", "result": 100, "unit": "%"}, {"measurement": "% Remaining 1 h", "setting": "[1]; 1 h", "result": 100, "unit": "%"}, {"measurement": "% Remaining 4 h", "setting": "[1]; 4 h", "result": 100, "unit": "%"}, {"measurement": "% Remaining 24 h", "setting": "[1]; 24 h", "result": 100, "unit": "%"}, {"measurement": "% Remaining 48 h", "setting": "[1]; 48 h", "result": 100, "unit": "%"}, {"measurement": "% Remaining 72 h", "setting": "[1]; 72 h", "result": 100, "unit": "%"}, {"measurement": "T½ (h)", "setting": "[1]; * = value obtained using nonlinear regression", "result": "Stable"}, {"measurement": "T/K at 4 h (tumor uptake/kidney uptake)", "setting": "[2]; 4 h", "result": 7.0}, {"measurement": "T at 24 h (tumor uptake)", "setting": "[2]; 24 h", "result": 10.4}, {"measurement": "T/K at 24 h (tumor uptake/kidney uptake)", "setting": "[2]; 24 h", "result": 57}, {"measurement": "T at 96 h (tumor uptake)", "setting": "[2]; 96 h", "result": 7.3}, {"measurement": "T/K at 96 h (tumor uptake/kidney uptake)", "setting": "[2]; 96 h", "result": 182}, {"measurement": "T/K at 4 h (tumor uptake/kidney uptake)", "setting": "LNCap tumor-bearing mice; 4 h", "result": 2.52}, {"measurement": "T at 24 h (tumor uptake)", "setting": "LNCap tumor-bearing mice; 24 h", "result": 10.0}, {"measurement": "T/K at 24 h (tumor uptake/kidney uptake)", "setting": "LNCap tumor-bearing mice; 24 h", "result": 7.04}, {"measurement": "T at 96 h (tumor uptake)", "setting": "LNCap tumor-bearing mice; 96 h", "result": 10.1}, {"measurement": "T/K at 96 h (tumor uptake/kidney uptake), *value at 72 h", "setting": "LNCap tumor-bearing mice; value at 72 h", "result": "15.5*"}]}
